Laboratory results as given in patent publication US9186337B2, “Lysine demethylase inhibitors for diseases and disorders associated with Hepadnaviridae” (Oryzon Genomics S.A., priority 2010, dated 2015).

Assays:
[1] = Maximum tolerated dose study in mice; assay type: in vivo; conditions: IP, 20, 40 and 60 mg/kg daily for 10 days
Method: (§1) Maximum tolerated dose studies and pharmacokinetics for several LSD1 inhibitors were assessed to determine if the compound can be administered to mammals safely at does that are expected to achieve therapeutic effects. In particular, compound X was given to mice IP at 20 mg/kg 40 mg/kg and 60 mg/kg daily for 10 days in a MTD study conducted at Leitat.

[2] = Pharmacokinetics (PK studies); assay type: in vivo, mice; conditions: at the MTD study doses, in words
Method: as §1

[3] = Cytotoxicity in anti-HBV assay; assay type: cell-based; conditions: human; HepG2-2.2.15 cells
Method: (§2) Anti-HBV assays were conducted at Southern Research Organization using an HBV DNA replicon with a luciferase reporter.
(§3) Southern Research reports HepG2-2.2.15 is a stable cell line containing the hepatitis B virus (HBV) ayw strain genome. Antiviral compounds blocking any late step of viral replication such as transcription, translation, pregenome encapsidation, reverse transcription, particle assembly and release can be identified and characterized using this cell line. Initially we test whether a compound will reduce the production of secreted HBV from cells utilizing our real time quantitative PCR (TaqMan) HBV DNA assay.

[4] = system: hepatitis B virus (HBV) ayw strain; test: Anti-HBV assay with HepG2-2.2.15 cells (HBV DNA replication); assay type: cell-based; conditions: for Selectivity Index SI50: HepG2-2.2.15 cells; for EC50: Hepatitis B virus, HepG2 2.2.15, read-out: Antiviral Activity EC50
Method: as §2, §3

Row | SMILES | tolerability in MTD study [1] | Cmax [2] | IC50 [3] [µM] | Selectivity Index SI50 [4] | EC50 [4] [µM] | activity in an HBV DNA replication assay ([4]; in words)
1 | NC1CC1c1ccc(-c2cccc(O)c2)cc1 (stereo not drawn) [Compound X] | tolerated with acceptable toxicity | expected to result in therapeutic levels | 54.8 | 26.8 | 2.24 | low micromolar range
2 | Nc1ccn([C@@H]2CS[C@H](CO)O2)c(=O)n1 (relative stereo) [Compound 3TC, (2R, cis)-4-amino-1-(2-hydroxymethyl-1,3-oxathiolan-5-yl)-(1H)-pyrimidin-2-one, reference compound] |  |  | 60.4 | >100 | 0.01 | 
